The text below walks through data of ChEMBL document CHEMBL5725642, “Inhibitors of human immunodeficiency virus replication” (2018).

Values joined by “and” are separate entries in the source; they are usually repeats but may differ in a detail not shown here. Equal entries are not always repeated.

The nature of this assay: Infectivity Assay: HIV cell culture assay¿MT-2 cells, 293T cells and the proviral DNA clone of NL4-3 virus were obtained from the NIH AIDS Research and Reference Reagent Program. MT-2 cells were propagated in RPMI 1640 media supplemented with 10% heat inactivated fetal bovine serum (FBS), 100 ug/ml penicillin G and up to 100 units/ml streptomycin. The 293T cells were propagated in DMEM media supplemented with 10% heat inactivated FBS, 100 ug/ml penicillin G and 100 ug/ml streptomycin. A recombinant NL4-3 proviral clone, in which a section of the nef gene was replaced with the Renilla luciferase gene, was used to make the reference virus used in these studies. The recombinant virus was prepared through transfection of the recombinant NL4-3 proviral clone into 293T cells using Transit-293 Transfection Reagent from Mirus Bio LLC (Madison, Wis.). Supernatent was harvested after 2-3 days after transfection, and the amount of virus present was titered in MT-2 cells using luciferase enzyme activity as a marker. Luciferase activity was quantitated using the EnduRen Live Cell Substrate from Promega (Madison, Wis.). Antiviral activities of compounds toward the recombinant virus were quantified by measuring luciferase activity in MT-2 cells infected for 4-5 days with the recombinant virus in the presence of serial dilutions of the compound.The 50% effective concentration (EC50) was calculated by using the exponential form of the median effect equation where (Fa)=1/[1+(ED50/drug conc.)m](Johnson V A, Byington R T. Infectivity Assay. In Techniques in HIV Research. ed. Aldovini A, Walker B D. 71-76. New York: Stockton Press. 1990). The format is cell-based.
With `CN(C(=O)[C@H](Cc1ccccc1)NC(=O)NS(=O)(=O)c1ccccc1-c1cnn(C)c1)c1ccc2c(c1)OCO2`, the EC50 was 5.5 µM and 0.55 µM. For the molecule `Cc1ccccc1S(=O)(=O)NC(=O)N[C@H](CCc1ccccc1)C(=O)N(C)c1ccc2c(c1)OCO2`, the EC50 was 55 µM. As for `CN(C(=O)[C@H](Cc1ccccc1)NC(=O)NS(=O)(=O)c1ccccc1)c1ccc2c(c1)OCO2`, the figure is 0.55 µM; as for `CN(C(=O)[C@@H](Cc1ccccc1)NC(=O)NS(=O)(=O)c1ccccc1)c1ccc2c(c1)OCO2`, 55 µM; as for `Cc1ccccc1S(=O)(=O)NC(=O)N[C@@H](CCc1ccccc1)C(=O)N(C)c1ccc2c(c1)OCO2`, 55 µM.

The term EC50 denotes the midpoint of the concentration-response curve.
